Each structure is given as a SMILES string.

One assay deals with hROMK1 (Kir1.1) (Homo sapiens (Human), UniProt P48048). Briefly: ^86Rb^+ Efflux Assay. Type of assay: cell-based. The note with it: CHO-DHFR- cells stably expressing hROMK1 (Kir1.1); value in parentheses at the end of each Example; read-out: IC50 in the ^86Rb^+ Efflux Assay.
Chain of hROMK1 (Kir1.1) (P48048 whole entry): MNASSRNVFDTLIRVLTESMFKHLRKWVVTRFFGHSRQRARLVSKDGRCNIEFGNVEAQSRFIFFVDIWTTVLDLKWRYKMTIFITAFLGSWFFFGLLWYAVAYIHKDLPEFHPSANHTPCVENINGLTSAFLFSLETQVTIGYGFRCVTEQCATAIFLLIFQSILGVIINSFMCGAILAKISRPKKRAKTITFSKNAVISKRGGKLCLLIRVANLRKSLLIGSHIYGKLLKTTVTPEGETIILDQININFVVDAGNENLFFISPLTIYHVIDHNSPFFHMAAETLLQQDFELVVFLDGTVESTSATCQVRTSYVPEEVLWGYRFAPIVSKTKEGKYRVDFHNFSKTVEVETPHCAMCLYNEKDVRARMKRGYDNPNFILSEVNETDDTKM
Broadly, the IC50 is the concentration that inhibits the measured activity by half. Consider `O=[N+]([O-])c1ccc(CCN2CCN(CCc3ccc([N+](=O)[O-])cn3)CC2)cc1` [Example 2, 1-[2-(4-Nitrophenyl)ethyl]-4-[2-(5-nitropyridin-2-yl)ethyl]piperazine], for which the 50% inhibitory concentration (IC50) turned out to be 0.28 µM.

Regarding `N#Cc1ccc2c(c1)CCC(N1CCN(CCc3ccc([N+](=O)[O-])cc3)CC1)C2` (stereo not drawn) [Example 3, 6-{4-[2-(4-Nitrophenyl)ethyl]piperazin-1yl}-5,6,7,8-tetrahydronaphthalene-2-carbonitrile], the IC50 was 0.05 µM.

For `O=[N+]([O-])c1ccc(CCN2CCN(CCc3ccc([N+](=O)[O-])cc3)C(CF)C2)cc1` (stereo not drawn) [Example 5, 2-(Fluoromethyl)-1,4-bis[2-(4-nitrophenyl)ethyl]piperazine], the IC50 turned out to be 0.18 µM.

For the compound `COC(=O)[C@H](Cc1ccc([N+](=O)[O-])cc1)N1CCN(CCc2ccc([N+](=O)[O-])cc2)CC1` [Example 8, Methyl(2S)-3-(4-nitrophenyl)-2-{4-[2-(4-nitrophenyl)ethyl]piperazin-1-yl}propanoate], the IC50 amounted to 0.51 µM.

Turning to `CC1(C)CN(CCc2ccc([N+](=O)[O-])cc2)CCN1CCc1ccc([N+](=O)[O-])cc1` [Example 9, 2,2-Dimethyl-1,4-bis[2-(4-nitrophenyl)ethyl]piperazine], the IC50 was found to be 0.21 µM.

Consider `O=[N+]([O-])c1ccc(CCN2C[C@@H]3C[C@H]2CN3CCc2ccc([N+](=O)[O-])cc2)cc1` [Example 10, (1S,4S)-2,5-Bis[2-(4-nitrophenyl)ethyl]-2,5-diazabicyclo[2.2.1]heptane], for which the IC50 was determined as 0.11 µM.

On to `O=[N+]([O-])c1ccc(CCN2CCN(CCc3ccc([N+](=O)[O-])cc3)C(C3CC3)C2)cc1` (stereo not drawn) [Example 11, 2-Cyclopropyl-1,4-bis[2-(4-nitrophenyl)ethyl]piperazine], for which the IC50 is 0.86 µM.

On to `O=[N+]([O-])c1ccc(CCN2CCN(CCc3ccc([N+](=O)[O-])cc3)C(C(F)F)C2)cc1` (stereo not drawn) [Example 12, 2-(Difluoromethyl)-1,4-bis[2-(4-nitrophenyl)ethyl]piperazine], for which the IC50 amounted to 0.44 µM.

For `O=[N+]([O-])c1ccc(CCN2CCN(CCc3ccc([N+](=O)[O-])cc3)C(CO)C2)cc1` (stereo not drawn) [Example 13, {1,4-Bis[2-(4-nitrophenyl)ethyl]piperazin-2-yl}methanol], the IC50 was found to be 0.26 µM.

For the compound `O=[N+]([O-])c1ccc(CCN2CCN(CCc3ccc([N+](=O)[O-])cc3C(F)(F)F)CC2)cc1` [Example 15, 1-[2-(4-Nitrophenyl)ethyl]-4-{2-[4-nitro-2-(trifluoromethyl)phenyl]ethyl}piperazine], the IC50 came out at 0.44 µM.

As for `O=[N+]([O-])c1ccc(CCN2CC3CCC(C2)N3CCc2ccc([N+](=O)[O-])cc2)cc1` [Example 16, 3,8-Bis-[2-(4-nitrophenyl)ethyl]-3,8-diazabicyclo[3.2.1]octane], the IC50 was determined as 0.19 µM.

Regarding `CC(Cc1ccc([N+](=O)[O-])cc1)N1CCN(C(C)Cc2ccc([N+](=O)[O-])cc2)CC1` (stereo not drawn) [Example 19, 1,4-Bis[1-methyl-2-(4-nitrophenyl)ethyl]piperazine], the IC50 came out at 0.33 µM.

As for `O=[N+]([O-])c1ccc(CCN2CC3CCC2CN3CCc2ccc([N+](=O)[O-])cc2)cc1` [Example 20, 2,5-Bis[2-(4-nitrophenyl)ethyl]-2,5-diazabicyclo[2.2.2]octane], the IC50 was determined as 0.21 µM.

Consider `COC(=O)CC1CN(CCc2ccc([N+](=O)[O-])cc2)CCN1CCc1ccc([N+](=O)[O-])cc1` (stereo not drawn) [Example 21, Methyl{1,4-bis[2-(4-nitrophenyl)ethyl]piperazin-2-yl}acetate], for which the IC50 worked out at 0.39 µM.

In the case of `COc1cc(CCN2CCN(CCc3ccc([N+](=O)[O-])cc3)CC2)ccc1C#N` [Example 22, 2-Methoxy-4-(2-{4-[2-(4-nitrophenyl)ethyl]piperazin-1-yl}ethyl)benzonitrile], the IC50 worked out at 0.052 µM.

With `Cc1cc(C#N)ccc1CCN1CCN(CCc2ccc([N+](=O)[O-])cc2)CC1` [Example 23, 3-Methyl-4-(2-{4-[2-(4-nitrophenyl)ethyl]piperazin-1-yl}ethyl)benzonitrile], the IC50 is 0.062 µM.

With `Cc1cc(CCN2CCN(CCc3ccc([N+](=O)[O-])cc3)CC2)ccc1C#N` [Example 24, 2-Methyl-4-(2-{4-[2-(4-nitrophenyl)ethyl]piperazin-1-yl}ethyl)benzonitrile], the IC50 was found to be 0.19 µM.

`N#Cc1ccc2c(c1)CC[C@H](N1CCN(CCc3ccc([N+](=O)[O-])cc3)CC1)C2` [Example 25, (6S)-6-{4-[2-(4-Nitrophenyl)ethyl]piperazin-1-yl}-5,6,7,8-tetrahydronaphthalene-2-carbonitrile]: the IC50 is 0.083 µM.

As for `N#Cc1ccc2c(c1)CC[C@@H](N1CCN(CCc3ccc([N+](=O)[O-])cc3)CC1)C2` [Example 26, (6R)-6-{4-[2-(4-Nitrophenyl)ethyl]piperazin-1-yl}-5,6,7,8-tetrahydronaphthalene-2-carbonitrile], the IC50 worked out at 0.066 µM.

Turning to `c1cc2nonc2cc1CCN1CCN(C2CCc3cc(-n4cnnn4)ccc3C2)CC1` (stereo not drawn) [Example 27, 5-(2-{4-[6-(1H-Tetrazol-1-yl)-1,2,3,4-tetrahydronaphthalen-2-yl]piperazin-1-yl}ethyl)-2,1,3-benzoxadiazole], the IC50 is 0.98 µM.

On to `N#Cc1c(F)cc(CCN2CCN(CCc3ccc([N+](=O)[O-])cc3)CC2)cc1F` [Example 28, 2,6-Difluoro-4-(2-{4-[2-(4-nitrophenyl)ethyl]piperazin-1-yl}ethyl)benzonitrile], for which the IC50 was determined as 0.16 µM.

With `N#Cc1ccc2c(c1)CC(N1CCN(CCc3ccc([N+](=O)[O-])cc3)CC1)C2` (stereo not drawn) [Example 29, 2-{4-[2-(4-Nitrophenyl)ethyl]piperazin-1-yl}-2,3-dihydro-1H-indene-5-carbonitrile], the IC50 was found to be 0.73 µM.

Turning to `O=[N+]([O-])c1ccc(CCN2CCN(C3Cc4ccc([N+](=O)[O-])cc4C3)CC2)cc1` (stereo not drawn) [Example 30, 1-(5-Nitro-2,3-dihydro-1H-inden-2-yl)-4-[2-(4-nitrophenyl)ethyl]piperazine], the IC50 came out at 0.31 µM.

On to `COc1cc(C#N)ccc1CCN1CCN(CCc2ccc([N+](=O)[O-])cc2)CC1` [Example 31, 3-Methoxy-4-(2-{4-[2-(4-nitrophenyl)ethyl]piperazin-1-yl}ethyl)benzonitrile], for which the IC50 was 0.3 µM.

For the compound `N#Cc1ccc(CCN2CCN(CCc3ccc([N+](=O)[O-])cc3)CC2)cc1F` [Example 32, 2-Fluoro-4-(2-{4-[2-(4-nitrophenyl)ethyl]piperazin-1-yl}ethyl)benzonitrile], the IC50 worked out at 0.24 µM.

Regarding `O=C1OCc2cc(CCN3CCN(C4CCc5cc6nonc6cc5C4)CC3)ccc21` (stereo not drawn) [Example 33, 5-{2-[4-(5,6,7,8-Tetrahydronaphtho[2,3-c][1,2,5]oxadiazol-6-yl)piperazin-1-yl]ethyl}-2-benzofuran-1(3H)-one], the IC50 came to 0.21 µM.

For `N#Cc1cccc2c1CCC2CN1CCN(CCc2ccc3c(c2)COC3=O)CC1` (stereo not drawn) [Example 34, 1-((4-(2-(1-Oxo-1,3-dihydroisobenzofuran-5-yl)ethyl)piperazin-1-yl)methyl)-2,3-dihydro-1H-indene-4-carbonitrile], the IC50 came to 0.27 µM.

Staying with this assay, now noted: Table 1; CHO-DHFR- cells stably expressing hROMK1 (Kir1.1); read-out: ^86Rb^+ Efflux Assay IC50.
As to `CC1(C)CN(CCc2ccc([N+](=O)[O-])cc2)CCN1CCc1ccc([N+](=O)[O-])cc1` [Example 9, 2,2-Dimethyl-1,4-bis[2-(4-nitrophenyl)ethyl]piperazine], the half-maximal inhibitory concentration (IC50) was determined as 0.21 µM.

For the compound `O=[N+]([O-])c1ccc(CCN2C[C@@H]3C[C@H]2CN3CCc2ccc([N+](=O)[O-])cc2)cc1` [Example 10, (1S,4S)-2,5-Bis[2-(4-nitrophenyl)ethyl]-2,5-diazabicyclo[2.2.1]heptane], the IC50 amounted to 0.11 µM.

For the compound `N#Cc1ccc2c(c1)CC[C@@H](N1CCN(CCc3ccc([N+](=O)[O-])cc3)CC1)C2` [Example 26, (6R)-6-{4-[2-(4-Nitrophenyl)ethyl]piperazin-1-yl}-5,6,7,8-tetrahydronaphthalene-2-carbonitrile], the IC50 turned out to be 0.066 µM.

The values above are taken from patent US9073882B2, “Inhibitors of the renal outer medullary potassium channel” (Merck Sharp & Dohme Corp., priority 2010, dated 2015).
